Test results published in patent US7030087B2, “Synthetic approach to designed chemical structures” (priority 1996, dated 2006).

What was measured:
ICAM-1 = ICAM-1 expression on endothelial cells (immunofluorescence, FACScan); type: cell-based, human
Procedure: In a first series of experiments, PF4 and βpep peptides were tested for their ability to prevent bFGF (fibroblast growth factor) mediated downregulation of ICAM-1. […] Simultaneously 100 μg/ml of each PF4, βpep-14, βpep-16, or medium was added. Mean ICAM-1 fluorescence intensity values were determined.
(§1) Since the in vivo situation of tumor associated EC involves the low expression or even absence of ICAM-1, the next set of experiments aimed to study the ability to reinduce ICAM-I expression after bFBF preincubation. […] In these experiments, HUVEC were pretreated for 3 days with bFGF, subsequently PF4 was added for 3 days and, where indicated in the last 16 hours of culture 4 ng/ml TNFα was added. Human umbilical vein derived endothelial cells (HUVEC) were harvested from normal human umbilical cords by perfusion with 0.125% trypsin/EDTA as described previously. Cells were cultured in fibronectin (FN) coated tissue culture flasks in culture medium (RPMI-1640 with 20% human serum (HS), supplemented with 2 mM glutamine and 100 U/ml penicillin and 0.1 mg/ml streptomycin). Immunofluorescence using indirect PE-conjugated reagents required three separate incubations. 1×10^5 EC were fixed for 1 hour in 1% paraformaldehyde, resuspended in 20 μl appropriately diluted Mab and incubated for 1 hour on ice. Subsequently, cells were washed two times in PBS/BSA (0.1%) and incubated for another 30 minutes with biotinylated rabbit-anti-mouse Ig (Dako, Glostrup, Denmark). After another 2 washings, cells were incubated with streptavidin-phycoerythrin conjugate (Dako). Stained cells were analyzed on a FACScan flowcytometer. Data analysis was performed using PCLysys software (Becton Dickinson, Mountain View, Calif.). Statistical significance of observed differences was determined using the Student's t-test.
The energy of EC to stimulation with inflammatory cytokines was the subject of a next series of experiments. For these experiments, HUVEC (human vascular endothelial cells) were pretreated with 10 ng/ml bFGF for 3 days. Subsequently, cells are subcultured for 3 days with […] in the presence of PF4. For the last 16 hours of the culture 4 ng/ml TNFα was added to induce upregulation of ICAM-1. […] The regulation of ICAM-1 at the protein level was confirmed in Northern blot analysis for detection of ICAM-1 message. In these experiments, HUVEC were cultured for 3 days with bFGF and treated for the last 4 and 24 hours with PF4 (100 μg/ml). TNFα was added 2 hours before isolation of RNA. RNA from a subconfluent EC cultures (75 cm^2 Petri-dishes) incubated with bFGF for different time-points was isolated using an RNA-zol kit (Campro Scientific, Houston, Tex.). Total RNA (10 μg) for each sample was separated in a 0.8% formaldehyde-denaturing gel, transferred to nitrocellulose (Hybond N+, Amersham International, Amersham, UK) and hybridized to a ^32P-labelled 1.9 Kb c-DNA probe, containing the functional sequence of the human ICAM-1 gene (a gift from Dr. B. Seed). Membranes were washed at a high stringency in 0.2×SSC, 0.1% SDS at 50° C. for 1 hour. Filters were exposed to X-ray films (Kodak X-omat, Eastman Kodak Company, Rochester, N.Y.) using an intensifying screen at −80° C. for not less than 12 hr. Autoradiograms were subjected to scanning using a laser densitometer (Model GS670, Bio-Rad, Hercules, Calif.) and data were analysed with the Molecular Analyst PC™ software. The intensity of the major ICAM-1 mRNA transcript was normalized with respect to actin mRNA expression used as a control.

EC (endothelial cells) = assay: EC proliferation, 3[H]thymidine incorporation assay; type: cell-based
Procedure: as §1
EC proliferation was measured using a ^3[H]thymidine incorporation assay. EC were seeded in flatbottomed 96-well tissue culture plates (5000 cells/well) and grown for 3 days, in culture medium. In some cultures the proliferation of EC was enhanced by incubation with 10 ng/ml bFGF. During the list 6 hours of the assay, the culture was pulsed with 0.5 μCi [methyl-^3H]thymidine/well. Results are expressed as the arithmetic mean counts per minute (cpm) of triplicate cultures.

[1] = system: endotoxin from E. coli 055:B5; assay: Limulus amoebocyte lysate assay (E-TOXATE), endotoxin neutralization; type: biochemical; settings: for Endotoxin Neutralization, % neutralization: 5.0 × 10^−6 M Peptide; for Endotoxin Neutralization, % neutralization / Endotoxin Neutralization, % at the effective dose / Endotoxin Neutralization, Ed, Effective M dose: Table 4; for Endotoxin Neutralization, % at the effective dose: at the Ed
Procedure: The peptides were tested for their ability to neutralize endotoxin. Quantitative endotoxin activities for these peptides were measured by Limulus amoebocyte lysate assay.
Limulus amoebocyte lysate assay: The ability of synthetic peptides to neutralize endotoxin was detected with the E-TOXATE kit manufactured by Sigma Chemicals (St. Louis, Mo.). […] Peptide or B/PI was incubated with LPS at room temperature for 5 min in 100 ul of a 1:2 dilution of pyrogen-free saline (pH 6.4). The reaction was started by addition of 100 ul of amoebocyte lysate and the final volume was 200 ul. Assuming a 10,000 molecular weight for LPS, the approximate molar ration of B/PI:LPS at neutralization was 3000 to 1.
The peptides were tested according to the method provided above. […] BG38L was used as a positive control in these experiments.

P. aeruginosa = assay: Bactericidal activity assay; type: cell-based, Pseudomonas aeruginosa type 1; settings: for Bactericidal Activity, % killing: 1.2 × 10^−7 M Peptide, 5 × 105 P. aeruginosa; for Bactericidal Activity, % killing at the effective dose: at the Ed for the same peptide; for Bactericidal Activity, Ed, Effective M dose: dose at which the % in brackets was found
Text: Bacteria: P. aeruginosa type 1 is a clinical isolate maintained in the laboratory. The isolate remains a smooth strain and was serotyped by the scheme of Homma. The Pseudomonas strain was maintained by monthly transfer on blood agar plates.
The peptides can be assayed for bactericidal activity against a variety of organisms such as Pseudomonas aeruginosa type 1, P. cepacia ATCC 25608, E. coli B, and Staphylococcus aureus 502A by standard methods.
Pseudomonas aeruginosa type 1 is a clinical isolate. The isolate remains a smooth strain and was serotyped by the scheme of Homma (Jpn. J. Exp. Med. 46:329, 1976). A rough strain, E. coli B and S. aureus 502A were obtained from Paul Quie, University of Minnesota (Minneapolis, Minn.). The characteristics of the S. aureus strain have been described by Shinefield et al. (Amer. J. Dis. Chil. 105:646, 1963). Pseudomonas cepacia ATCC 25608 can be purchased from the ATCC. S. aureus and E. coli were maintained on nutrient agar plates and the Pseudomonas strains were maintained on blood agar plates.
Pyrogen-free solutions were used throughout the assay and all methods that follow. Log phase bacteria were prepared from a culture in brain heart infusion broth (Hovde et al. Infect. Immun. 54:142–148, 1986) and bacteria were washed and resuspended in saline with adjustment to an optical density at 650 nm to provide a yield of about 3×10^8 CFU/ml. Bacteria were diluted 1:10 in 0.08M citrate phosphate buffer, pH 5.6 or pH 7.0, for use in the assay. S. aureus rapidly lost viability in the pH 5.6 buffer and was studied only at pH 7.0. Bactericidal activity was determined by dose response over peptide concentrations ranging from about […] to about 4.1×10^−9M. Bactericidal activity was determined by dose response, preferably determining LD50 by linear regression.

[2] = system: endothelial cells (FBHEC, HUVEC); assay: Endothelial cell proliferation assay of βpeptides 1–24 (FIG. 7); type: cell-based
Procedure: FIG. […] FIG. 7A provides ^3H-Thymidine incorporation data for FBHEC cells and FIG. 7B provides ^3H-Thymidine incorporation data for HUVEC cells.
βpeptides 1–24 were tested in an endothelial cell proliferation assay using ^3H-thymidine incorporation. […]

[3] = 0.02 U (0.2 pg) endotoxin from E. coli 055:B5
[4] = dose at which the % in brackets was found

| Compound | endotoxin neutralizing activity (in words) [1] | Endotoxin Neutralization, % neutralization [1, 3] | Endotoxin Neutralization, % at the effective dose [1] | Endotoxin Neutralization, Ed, Effective M dose [1, 4] | Bactericidal Activity, % killing (P. aeruginosa) | Bactericidal Activity, % killing at the effective dose (P. aeruginosa) | Bactericidal Activity, Ed, Effective M dose (P. aeruginosa) | further results |
| --- | --- | --- | --- | --- | --- | --- | --- | --- |
| O=C1CCC(N2C(=O)c3ccccc3C2=O)C(=O)N1 (stereo not shown) [thalidomide, reference compound] | – | – | – | – | – | – | – | effect of other inhibitors of angiogenesis on ICAM-1 expression (in words) (ICAM-1): did not affect ICAM-1 expression; EC growth in vitro (in words) (EC (endothelial cells)): do not affect EC growth in vitro |
| ANIKLSVEMKLFKRHLKWKIIVKLNDGRELSLD [βpep-8] | best endotoxin neutralizing activity | 100% | 77.9% | 1.2 µM | 0% | (28.1), n = 3% | 960 nM | Endotoxin Neutralizing Activity, % neutralization ([1]; 5.0 × 10^−5 M peptide, 0.02 U (0.2 pg) endotoxin from E. coli 055:B5, Table 3): 100%; Endotoxin neutralization, ED, Effective M dose ([1]; Table 3, dose at which the % in brackets was found): 1.2 µM; control of endothelial cell proliferation (in words) [2]: little cell proliferation activity |
| SIQDLKVSLNLFRKQAKWKIIVKLNDGRELSLD [βpep-23] | best endotoxin neutralizing activity | 100% | 65.7% | 1.2 µM | 0% | 45.8% | 480 nM | effectiveness at decreasing endothelial cell growth ([2]; 0.26 micromolar): about 30% |
| SIQDLNVSMKLFRKQAKWKIIAKLNDGRELSLD [βpep-16] | – | 100% | 16.5% | 1.2 µM | 0% | 24.3% | 960 nM | bFGF mediated downregulation of ICAM-1 (in words) (ICAM-1; 10 ng/ml bFGF for 3 days, 100 μg/ml added simultaneously): complete block of bFGF mediated downregulation; EC proliferation in vitro (in words) (EC (endothelial cells)): angiostatic; (3H)-thymidine incorporation (EC (endothelial cells); expt 2 (first, r11), 1 μg/ml, 10 ng/ml bFGF, medium 29079 ± 2506): 35447 ± 2621 cpm; (3H)-thymidine incorporation (EC (endothelial cells); expt 2 (first, r11), 1 μg/ml, no bFGF, medium 14296 ± 2490): 15039 ± 2020 cpm; (3H)-thymidine incorporation (EC (endothelial cells); expt 2 (first, r11), 10 μg/ml, 10 ng/ml bFGF, medium 29079 ± 2506): 33663 ± 2572 cpm; (3H)-thymidine incorporation (EC (endothelial cells); expt 2 (first, r11), 10 μg/ml, no bFGF, medium 14296 ± 2490): 11881 ± 2545 cpm; (3H)-thymidine incorporation (EC (endothelial cells); expt 2 (first, r11), 100 μg/ml, 10 ng/ml bFGF, medium 29079 ± 2506): 7852 ± 875 cpm; (3H)-thymidine incorporation (EC (endothelial cells); expt 2 (first, r11), 100 μg/ml, no bFGF, medium 14296 ± 2490): 4929 ± 749 cpm; (3H)-thymidine incorporation (EC (endothelial cells); expt 2 (second, r19), 1 μg/ml, 10 ng/ml bFGF, medium 52808 ± 4092): 47727 ± 447 cpm; (3H)-thymidine incorporation (EC (endothelial cells); expt 2 (second, r19), 1 μg/ml, no bFGF, medium 6780 ± 713): 7450 ± 737 cpm; (3H)-thymidine incorporation (EC (endothelial cells); expt 2 (second, r19), 10 μg/ml, 10 ng/ml bFGF, medium 52808 ± 4092): 44919 ± 2081 cpm; (3H)-thymidine incorporation (EC (endothelial cells); expt 2 (second, r19), 10 μg/ml, no bFGF, medium 6780 ± 713): 6148 ± 1370 cpm; (3H)-thymidine incorporation (EC (endothelial cells); expt 2 (second, r19), 100 μg/ml, 10 ng/ml bFGF, medium 52808 ± 4092): 27071 ± 3277 cpm; (3H)-thymidine incorporation (EC (endothelial cells); expt 2 (second, r19), 100 μg/ml, no bFGF, medium 6780 ± 713): 2669 ± 370 cpm |
